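Tested at 5 concentrations; 48 h exposure; 96-well plates; endpoints linearly interpolated, else capped at highest concentration. At the GI50, growth is halved.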 The source made the active and inactive calls. Cut-off read from the data, not from the text of the source: active = GI50 up to about 1.1 µM and inactive = higher.
Assays:
Test in all cases: NCI anticancer screen, dose series, 48 h
[1] = test system: MDA-MB-231
[2] = test system: SK-MEL-2
[3] = test system: HCT-116
[4] = test system: U-251
[5] = test system: Hs-578T
[6] = test system: SNB-75
[7] = test system: SK-OV-3
[8] = test system: SN12C
[9] = test system: OVCAR-3
[10] = test system: T47D
[11] = test system: A498
[12] = test system: LOX IMVI
[13] = test system: RXF 393
[14] = test system: SF-295
[15] = test system: UO-31
[16] = test system: CAKI-1
[17] = test system: SK-MEL-5
[18] = test system: MDA-N
[19] = test system: COLO 205
[20] = test system: A549
[21] = test system: NCI-H226
[22] = test system: HCT-15
[23] = test system: NCI/ADR-RES
[24] = test system: UACC-257
[25] = test system: 786-0
[26] = test system: SF-268
[27] = test system: SK-MEL-28
[28] = test system: HT-29
[29] = test system: OVCAR-5
[30] = test system: HOP-92
[31] = test system: OVCAR-8
[32] = test system: MDA-MB-435
[33] = test system: TK-10
[34] = test system: BT-549
[35] = test system: SW-620
[36] = test system: HOP-62
[37] = test system: UACC-62
[38] = test system: DU-145
[39] = test system: K562
[40] = test system: IGROV-1
[41] = test system: M14
[42] = test system: KM12
[43] = test system: NCI-H23
[44] = test system: PC-3
[45] = test system: OVCAR-4
[46] = test system: SNB-19
[47] = test system: RPMI-8226
[48] = test system: MOLT-4
[49] = test system: ACHN
[50] = test system: SF-539
[51] = test system: CCRF-CEM
[52] = test system: NCI-H460
[53] = test system: HCC 2998
[54] = test system: HL-60
[55] = test system: MCF7
[56] = test system: EKVX
[57] = test system: Malme-3M
[58] = test system: NCI-H522

Measured: GI50

Cc1ccc(/N=N/c2c(O)ccc3ccccc23)c(C)c1
> 100 µM: [22]
inactive: [1] > 100 µM | [2] > 100 µM | [3] > 100 µM | [4] > 100 µM | [5] > 100 µM | [6] > 100 µM | [7] > 100 µM | [8] > 100 µM | [9] > 100 µM | [10] > 100 µM | [11] > 100 µM | [12] > 100 µM | [13] > 100 µM | [14] > 100 µM | [15] > 100 µM | [16] > 100 µM | [17] > 100 µM | [18] > 100 µM | [19] > 100 µM | [20] > 100 µM | [21] > 100 µM | [23] > 100 µM | [24] > 100 µM | [25] > 100 µM | [26] > 100 µM | [27] > 100 µM | [28] > 100 µM | [29] > 100 µM | [30] > 100 µM | [31] > 100 µM | [32] > 100 µM | [33] > 100 µM | [34] > 100 µM | [35] > 100 µM | [36] > 100 µM | [37] > 100 µM | [38] > 100 µM | [39] > 100 µM | [40] > 100 µM | [41] > 100 µM | [42] > 100 µM | [43] > 100 µM | [44] > 100 µM | [45] > 100 µM | [46] > 100 µM | [47] > 100 µM | [48] > 100 µM

CCCc1c(Cl)nc(Cl)nc1Cl
inactive: [49] 1.64 µM | [4] 1.22 µM | [5] 3.52 µM | [6] 9.18 µM | [7] > 100 µM | [50] 2.54 µM | [10] 3.08 µM | [11] 19.5 µM | [14] 4.16 µM | [15] 25.4 µM | [52] 1.2 µM | [20] 4.63 µM | [24] 2.13 µM | [26] 1.29 µM | [29] 1.54 µM | [30] 2.65 µM | [33] 3.44 µM | [53] 5.55 µM | [36] 2.43 µM | [55] 1.73 µM | [56] > 10 µM | [38] 5.47 µM | [42] 3.61 µM | [44] 2.75 µM | [45] 10.2 µM | [46] 4.71 µM
active: [1] 0.425 µM | [2] 0.352 µM | [3] 0.546 µM | [8] 0.467 µM | [9] 1.01 µM | [51] 0.0265 µM | [12] < 0.01 µM | [13] 1.09 µM | [17] 0.0594 µM | [18] 0.211 µM | [19] 0.252 µM | [21] 0.0222 µM | [23] 0.845 µM | [25] 0.247 µM | [27] 0.336 µM | [28] 0.175 µM | [31] 1.05 µM | [32] 0.471 µM | [34] 0.377 µM | [35] 0.16 µM | [37] 0.822 µM | [54] 0.48 µM | [39] 0.0723 µM | [57] < 20.8 nM | [40] 0.787 µM | [41] 0.192 µM | [43] 0.428 µM | [47] 0.432 µM | [48] 0.0429 µM
0.327 µM: [22]

COc1ccc2c(c1)O[C@@H]1C(O)Oc3cc(OC)c(OC)cc3[C@]1(O)C2=O (stereo partly drawn)
inactive: [1] 72.3 µM | [49] > 100 µM | [2] > 100 µM | [3] 86.3 µM | [4] 59 µM | [5] 20.2 µM | [6] > 100 µM | [7] > 100 µM | [8] > 100 µM | [50] > 100 µM | [9] > 100 µM | [10] 31.2 µM | [11] 82.6 µM | [51] 38.9 µM | [12] 29.9 µM | [58] 5.33 µM | [13] > 100 µM | [14] 24 µM | [16] > 100 µM | [17] 10.5 µM | [18] 50.1 µM | [19] 95.1 µM | [52] 69 µM | [20] 9.1 µM | [21] 10.4 µM | [23] 30.4 µM | [24] 29 µM | [25] > 100 µM | [26] 34.3 µM | [27] > 100 µM | [28] 89.9 µM | [29] > 100 µM | [31] 94.6 µM | [32] 50.8 µM | [33] > 100 µM | [34] 12.6 µM | [35] 88.7 µM | [36] > 100 µM | [37] 78 µM | [54] 32.1 µM | [55] 55.1 µM | [56] 45.9 µM | [38] > 100 µM | [39] 42.9 µM | [40] > 100 µM | [41] > 100 µM | [42] 79.3 µM | [43] 3.44 µM | [44] 59.6 µM | [45] 35.1 µM | [46] > 100 µM | [47] 44.8 µM | [48] 36.6 µM
> 100 µM: [22]

Reference: ChEMBL document CHEMBL1201862, “PubChem BioAssay data set” (2004)
